Source: patent US20220133895A1, “CAMPTOTHECIN-BASED DIMER COMPOUND, ANTICANCER DRUG AND METHOD OF ELIMINATING CANCER STEM CELL” (HUAZHONG UNIVERSITY OF SCIENCE AND TECHNOLOGY, priority 2020, published 2022)

Assays:
cancer stem cells = test: Effect on cancer stem cells (cell cycle, 3D tumor spheroids) from treated 4T1 tumors; type: in vivo, mouse; conditions: for G1-S cell cycle / dormancy of cancer stem cells: CD133, EdU, hoechst33342 flow cytometry
Protocol: The effect of the compound CN on cancer stem cells is studied, the specific steps were proceeded as follows. In the single cell suspension prepared in Example 6, the cell cycle (CD133, EdU, hoechst33342) of cancer stem cells was stained with antibodies, and the dormancy of the cancer stem cells was analyzed by flow cytometry. […] Fibrinogen was diluted to 20 mg/mL with T7 buffer (pH 7.4, 50 mM Tris, 150 mM NaCl), and then mixed with the above cell suspension in equal volume. 1 μL of thrombin (0.1 U/μL) was added to the 96-well plate in advance, and 50 μL of the mixed cell suspension was added. […] On the seventh day, the cell pellets in the 96-well plate were photographed and counted. The particle size of tumor cell spheroids was measured, and the number of tumor cell spheroids was counted to characterize the stemness and tumor-forming ability of tumor cells.

[1] = test system: mouse 4T1 breast cancer orthotopic tumor; test: Effect on antitumor immune response (DC maturation, Treg) in 4T1 tumor mice; type: in vivo; conditions: for regulatory T cells (Treg) in tumors: flow cytometry CD3, CD4, CD25, FoxP3
Description: The effect of the compound CN on antitumor immune response is studied, the specific steps were proceeded as follows. The tumor and adjacent lymph nodes of the mice in Example 4 were stripped. […] The adjacent lymph nodes were squeezed through a 200-mesh screen to prepare a single cell suspension, and the maturation of lymph node dendritic cells (DC cells, CD11c, CD80, CD86) was studied with antibodies.

[2] = test system: mouse 4T1 breast cancer orthotopic tumor; test: In vivo anti-tumor activity, intratumoral injection, 4T1 orthotopic model; conditions: for tumor suppression rate: BALB/c mice, CPT 1 mg/kg or CN 2.4 mg/kg intratumoral, NLG 500 ug/mouse gavage
IDO = target: T1, IDO (Homo sapiens, UniProt P14902); test: In vitro IDO inhibitory activity in IFN-γ-stimulated Hela cells; type: cell-based
T1 construct: endogenous in cells; host or cells: HeLa cells stimulated with human IFN-γ
T1 sequence (P14902 whole entry): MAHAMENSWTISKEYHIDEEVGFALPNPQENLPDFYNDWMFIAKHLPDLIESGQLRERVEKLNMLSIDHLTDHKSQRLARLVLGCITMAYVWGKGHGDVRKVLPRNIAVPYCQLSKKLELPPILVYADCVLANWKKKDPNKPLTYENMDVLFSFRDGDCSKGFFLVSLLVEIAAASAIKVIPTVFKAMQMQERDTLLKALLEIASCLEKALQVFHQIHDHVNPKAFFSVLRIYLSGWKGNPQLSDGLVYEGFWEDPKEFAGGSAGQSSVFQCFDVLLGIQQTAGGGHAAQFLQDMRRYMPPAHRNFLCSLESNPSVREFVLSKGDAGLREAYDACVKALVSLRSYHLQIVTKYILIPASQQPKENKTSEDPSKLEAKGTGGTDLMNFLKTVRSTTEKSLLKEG
Protocol: The inhibitory activity of the compound CN on IDO in vitro was investigated.
Hela cells were plated with a 96-well plate at 4,000 cells/well in DMEM complete medium containing 80 ng/ml of human IFN-γ, and incubated with a series of DMEM medium containing CN or NLG at a concentration of 0 μM, 0.1 μM, 1 μM, 10 μM, and 100 μM for 24 hours after 12 hours. 150 ul culture medium was aspirated, 75 ul trichloroacetic acid aqueous solution (30% w/v) was added, incubated at 50° C. for 30 min, and centrifuged at 3000 rpm for 10 minutes. 100 ul of the supernatant was collected, 100 ul of p-dimethylaminobenzaldehyde glacial acetic acid solution (2%, w/v) was added, placed at room temperature for 10 minutes, and the absorption was detected at 492 nm.

[3] = test system: mouse 4T1 breast cancer orthotopic tumor; test: Anti-tumor activity of CN@PHF, tail vein, 4T1 orthotopic model; type: in vivo; conditions: CN 2.4 mg/kg, days 1, 4, 7, 10
Description: The anti-tumor activity of CN@PHF in the mouse 4T1 breast cancer orthotopic tumor model was investigated and the specific steps were proceeded as follows:
At the age of 6 weeks, 20 g female BALB/c mice were inoculated with 5×10^5 cells of mouse breast cancer 4T1 cell suspension into the fourth pair of left breast pads on the abdomen of female BALB/c mice to establish a mouse model of 4T1 tumor in situ. When the tumor volume in situ was about 100 mm^3, the mice were randomly divided into 5 groups, 10 mice in each group, and were injected with normal saline, CN, Taxol, Irinotecan, CN@PHF through the tail vein. The dose of CN was 2.4 mg/kg, and the concentrations of Taxol and Irinotecan were the same as the molar concentration of CN. The administration time on the first day was recorded as the first day, and then the above-mentioned doses were administered on the 4th, 7th, and 10th days. From the 1st day, the mouse body weight and tumor volume were measured every other day, and the tumor volume-time curve was drawn. The mice were sacrificed on the 19th day, the tumor in situ was removed, weighed, and photographed. Tumors were stained with HE and TUNEL to study tumor cell apoptosis and stained with Ki67 to study tumor cell proliferation.

[4] = test system: 4T1 (breast cancer) cells; test: In vitro induction of immunogenic cell death; type: cell-based, mouse; conditions: 4T1 cells, 10 μM, 48 hours
Protocol: The in vitro activity of the compound CN in inducing immunogenic cell death was evaluated.
4T1 (breast cancer) cells were seeded into a 6-well plate at a density of 1×10^5 cells per well and cultured overnight. The cells were treated with PBS, CPT (camptothecin), NLG (IDO inhibitor), CPT+NLG, CN (all drug concentrations were 10 μM) for 48 hours. The supernatant was collected and cultured to detect the release of ATP and HMGB-1. The cells were trypsinized, then incubated with CRT antibody on ice for 30 minutes in the dark, and analyzed by flow cytometry. In addition, CRT eversion was also studied by immunofluorescence imaging. 4T1 cells were seeded into a confocal culture dish at a density of 1×10^5 cells per well and cultured overnight. The cells were treated with PBS, CPT (camptothecin), NLG (IDO inhibitor), CPT+NLG, CN (all drug concentrations were 10 μM) for 48 hours. The cells were washed twice with PBS and incubated with CRT antibody for 30 minutes. Washing was performed twice with PBS, and fixing was then performed with 4% paraformaldehyde. After washing was performed twice with PBS again, the nucleus was stained with DAPI for 30 minutes. After washing was performed twice, the cells were imaged with a confocal microscope.

[5] = Reduction responsiveness in GSH solution, by mass spectrometry; type: physicochemical; conditions: 100 mM GSH aqueous solution, stirred 12 hours
Protocol: Study on the reduction responsiveness of compounds was performed as follows.
A small amount of the compound CN was added to 100 mM GSH aqueous solution and stirred for 12 hours.

[6] = test system: mouse 4T1 breast cancer orthotopic tumor; test: Influence on the cancer stem cell niche, 4T1 orthotopic model; type: in vivo; conditions: tail vein, day 13, CD133, EdU, hoechst33342
Protocol: At the age of 6 weeks, 20 g female BALB/c mice were inoculated with 5×10^5 cells of mouse breast cancer 4T1 cell suspension into the fourth pair of left breast pads on the abdomen of female BALB/c mice to establish a mouse model of 4T1 tumor in situ. […] The administration time on the first day was recorded as the first day, and then the above-mentioned doses were administered on the 4th, 7th, and 10th days. On the 13th day, 50 μL of Edu (8 mg/ml) was injected into the tumor. Three hours later, the mice were sacrificed, the tumor in situ was stripped and divided into two parts. […] Flow cytometric analysis of the cell cycle (CD133, EdU, hoechst33342) of cancer stem cells was carried out to investigate the effect of drugs on the dormancy of cancer stem cells.

Row | Compound | G1-S cell cycle / dormancy of cancer stem cells (cancer stem cells) | regulatory T cells (Treg) in tumors [1] | tumor suppression rate ([2]; days 1, 4, 7, 10) [%] | number and particle size of 3D spheres of tumor cells (cancer stem cells; fibrin gel culture, seventh day) | IC50 (IDO) [nM] | inhibition at 1 µM (IDO; HeLa, read-out: IDO inhibition rate) [%] | DC maturation in lymph nodes adjacent to tumors ([1]; flow cytometry CD11c, CD80, CD86) | proportion of mature DC relative to CPT group ([1]; lymph nodes adjacent to tumors) | tumor volume [3] | ATP release relative to CPT and CPT+NLG groups [4] | CRT eversion, confocal imaging [4] | ability to induce CRT eversion relative to CPT group, flow cytometry [4] | ability to induce HMGB-1 [4] | tumor volume ([2]; intratumoral injection, 2.4 mg/kg, days 1, 4, 7, 10) | tumor elimination ([2]; intratumoral injection, 8 mice per group, day 15) | weight of the tumor ([2]; intratumoral injection, sacrificed day 15) | reduction responsiveness (degradation products) [5] | dormancy / cycle inhibition of cancer stem cells [6]
1 | CC[C@@]1(O)C(=O)OCc2c1cc1n(c2=O)Cc2cc3ccccc3nc2-1 [CPT, camptothecin] | block the G1-S cell cycle of cancer stem cells | significant increase in Treg | 61.9 |  |  |  |  |  |  |  |  |  |  |  |  |  |  | 
2 | CC[C@@]1(OC(=O)OCSSCOC(=O)OC(CC2c3ccccc3-c3cncn32)C2CCCCC2)C(=O)OCc2c1cc1n(c2=O)Cc2cc3ccccc3nc2-1 (stereo partly drawn) [CN] | significantly reduce the G1/S ratio | reverse the increase in Treg caused by CPT | 85 | significantly lower than those in the other groups | ~80 | ~100 | increased significantly | about twice that of CPT group | significantly smaller than the normal saline group and the positive drugs Taxol and Irinotecan groups | 2-3 times | more CRT eversion | about 1.5 times | significantly stronger than that of the other groups | significantly smaller than that of the other groups | one tumor was completely eliminated | significantly lower than that of the other groups | degraded to the original camptothecin and NLG919 | 
3 | CCc1c2c(nc3ccc(OC(=O)N4CCC(N5CCCCC5)CC4)cc13)-c1cc3c(c(=O)n1C2)COC(=O)[C@]3(O)CC [Irinotecan] |  |  |  |  |  |  |  |  |  |  |  |  |  |  |  |  |  | increase the dormancy of cancer stem cells
